Assay results published in patent publication US6825172B2, “3-descladinosyl-6-O-carbamoyl and 6-O-carbonoyl macrolide antibacterial agents” (Janssen Pharmaceutica, NV, priority 2002, dated 2004).
≈ marks a conversion by molar mass, not a printed value. Read-outs that look alike come from different tables or passages of the source.

Columns and labels:
Assay in all cases: MIC, microdilution broth method (NCCLS)
Format in all cases: cell-based
S. pneumoniae ATCC49619 = conditions: Streptococcus pneumoniae, read-out: MIC Values, D: S. pneumoniae ATCC49619
Protocol: (§1) Minimal inhibitory concentration (MIC) has been an indicator of in vitro antibacterial activity widely used in the art. The in vitro antimicrobial activity of the compounds was determined by the microdilution broth method following the test method from the National Committee for Clinical Laboratory Standards (NCCLS). This method is described in the NCCLS Document M7-A4, Vol.17, No.2, “Methods for Dilution Antimicrobial Susceptibility Test for Bacteria that Grow Aerobically—Fourth Edition”, which is incorporated herein by reference.
(§2) In this method two-fold serial dilutions of drug in cation adjusted Mueller-Hinton broth are added to wells in microdilution trays. The test organisms are prepared by adjusting the turbidity of actively growing broth cultures so that the final concentration of test organism after it is added to the wells is approximately 5×10^4 CFU/well.
(§3) Following inoculation of the microdilution trays, the trays are incubated at 35 °C for 16-20 hours and then read. […] The amount of growth in the wells containing the test compound is compared with the amount of growth in the growth-control wells (no test compound) used in each tray. As set forth in Table 1, compounds of the present invention were tested against a variety of Gram positive and Gram negative pathogenic bacteria resulting in a range of activities depending on the organism tested.

E. faecalis ATCC29212 = conditions: Enterococcus faecalis, read-out: MIC Values, C: E. faecalis ATCC29212
Protocol: as §1, §2, §3

S. aureus ATCC29213 = conditions: Staphylococcus aureus, read-out: MIC Values, B: S. aureus ATCC29213
Protocol: as §1, §2, §3

[1] = Table 3, 6-Carbonate Macrolide Derivatives
[2] = Table 2, 3,6-Dicarbamoyl Macrolide Derivatives
[3] = Table 1, 6-Carbamoyl-3-Acyl Macrolide Derivatives

SMILES	MIC (S. pneumoniae ATCC49619; [1])	MIC (E. faecalis ATCC29212; [1])	MIC (S. aureus ATCC29213; [1])	MIC (S. pneumoniae ATCC49619; [2])	MIC (E. faecalis ATCC29212; [2])	MIC (S. aureus ATCC29213; [2])	also measured
CC[C@H]1OC(=O)[C@H](C)[C@@H](OC(=O)C(C)C)[C@H](C)[C@@H](O[C@@H]2O[C@H](C)C[C@H](N(C)C)[C@H]2O)[C@](C)(OC(=O)OC/C=C/c2ccc(-c3cccnn3)cc2)C[C@@H](C)C(=O)[C@H](C)[C@H]2NC(=O)O[C@@]21C [Compound 82]	0.06 µg/mL (≈ 0.066 µM)	0.5 µg/mL (≈ 0.55 µM)	0.5 µg/mL (≈ 0.55 µM)				
CC[C@H]1OC(=O)[C@H](C)[C@@H](OC(=O)N(CC)CC)[C@H](C)[C@@H](O[C@@H]2O[C@H](C)C[C@H](N(C)C)[C@H]2O)[C@](C)(OC(=O)NC/C=C/c2ccc(-n3cncn3)cc2)C[C@@H](C)C(=O)[C@H](C)[C@H]2NC(=O)O[C@@]21C [Compound 72]				0.06 µg/mL (≈ 0.0648 µM)	0.5 µg/mL (≈ 0.54 µM)	0.5 µg/mL (≈ 0.54 µM)	
CC[C@H]1OC(=O)[C@H](C)[C@@H](OC(=O)N(CC)CC)[C@H](C)[C@@H](O[C@@H]2O[C@H](C)C[C@H](N(C)C)[C@H]2O)[C@](C)(OC(=O)NC/C=C/c2ccc(-c3ccn(C)n3)cc2)C[C@@H](C)C(=O)[C@H](C)[C@H]2NC(=O)O[C@@]21C [Compound 73]				0.12 µg/mL (≈ 0.128 µM)	0.5 µg/mL (≈ 0.532 µM)	1 µg/mL (≈ 1.06 µM)	
CC[C@H]1OC(=O)[C@H](C)[C@@H](OC(=O)N(C)OC)[C@H](C)[C@@H](O[C@@H]2O[C@H](C)C[C@H](N(C)C)[C@H]2O)[C@](C)(OC(=O)NC/C=C/c2ccc(-c3ncccn3)cc2)C[C@@H](C)C(=O)[C@H](C)[C@H]2NC(=O)O[C@@]21C [Compound 68]				0.06 µg/mL (≈ 0.0649 µM)	0.5 µg/mL (≈ 0.54 µM)	1 µg/mL (≈ 1.08 µM)	
CC[C@H]1OC(=O)[C@H](C)[C@@H](OC(=O)N(CC)CC)[C@H](C)[C@@H](O[C@@H]2O[C@H](C)C[C@H](N(C)C)[C@H]2O)[C@](C)(OC(=O)NC/C=C/c2ccc(-c3cnccn3)cc2)C[C@@H](C)C(=O)[C@H](C)[C@H]2NC(=O)O[C@@]21C [Compound 69]				0.06 µg/mL (≈ 0.064 µM)	0.5 µg/mL (≈ 0.534 µM)	0.5 µg/mL (≈ 0.534 µM)	
CC[C@H]1OC(=O)[C@H](C)[C@@H](OC(=O)Cc2cccnc2)[C@H](C)[C@@H](O[C@@H]2O[C@H](C)C[C@H](N(C)C)[C@H]2O)[C@](C)(OC(=O)OC/C=C/c2ccc(-c3cccnn3)cc2)C[C@@H](C)C(=O)[C@H](C)[C@H]2NC(=O)O[C@@]21C [Compound 79, 3-Pyridineacetic acid, (3aS,4R,7R,8S,9S,10R,11R,13R,15R,15aR)-4-ethyltetradecahydro-3a,7,9,11,13,15-hexamethyl-2,6,14-trioxo-11-[[[[(2E)-3-[4-(3-pyridazinyl)phenyl]-2-propenyl]oxy]carbonyl]oxy]-10-[[3,4,6-trideoxy-3-(dimethylamino)-β-D-xylo-hexopyranosyl]oxy]-2H-oxacyclotetradecino[4,3-d]oxazol-8-yl ester]	0.06 µg/mL (≈ 0.0626 µM)	0.5 µg/mL (≈ 0.522 µM)	1 µg/mL (≈ 1.04 µM)				
CC[C@H]1OC(=O)[C@H](C)[C@@H](OC(=O)N(CC)CC)[C@H](C)[C@@H](O[C@@H]2O[C@H](C)C[C@H](N(C)C)[C@H]2O)[C@](C)(OC(=O)OC/C=C/c2ccc(-c3cccnn3)cc2)C[C@@H](C)C(=O)[C@H](C)[C@H]2NC(=O)O[C@@]21C [Compound 83, Carbonic acid, (3aS,4R,7R,8S,9S,10R,11R,13R,15R,15aR)-8-[[(diethylamino)carbonyl]oxy]-4-ethyltetradecahydro-3a,7,9,11,13,15-hexamethyl-2,6,14-trioxo-10-[[3,4,6-trideoxy-3-(dimethylamino)-β-D-xylo-hexopyranosyl]oxy]-2H-oxacyclotetradecino[4,3-d]oxazol-11-yl(2E)-3-[4-(3-pyridazinyl)phenyl]-2-propenyl ester]	0.06 µg/mL (≈ 0.064 µM)	0.5 µg/mL (≈ 0.533 µM)	1 µg/mL (≈ 1.07 µM)				
CC[C@H]1OC(=O)[C@H](C)[C@@H](OC(=O)Cc2cccnc2)[C@H](C)[C@@H](O[C@@H]2O[C@H](C)C[C@H](N(C)C)[C@H]2O)[C@](C)(OC(=O)OCC#Cc2ccc(-c3ncccn3)cc2)C[C@@H](C)C(=O)[C@H](C)[C@H]2NC(=O)O[C@@]21C [Compound 81]	0.06 µg/mL (≈ 0.0628 µM)	0.25 µg/mL (≈ 0.261 µM)	0.5 µg/mL (≈ 0.523 µM)				
CC[C@H]1OC(=O)[C@H](C)[C@@H](OC(=O)Cc2cccnc2)[C@H](C)[C@@H](O[C@@H]2O[C@H](C)C[C@H](N(C)C)[C@H]2O)[C@](C)(OC(=O)OC/C=C/c2ccc(-c3ncccn3)cc2)C[C@@H](C)C(=O)[C@H](C)[C@H]2NC(=O)O[C@@]21C [Compound 78]	0.03 µg/mL (≈ 0.0313 µM)	0.25 µg/mL (≈ 0.261 µM)	0.25 µg/mL (≈ 0.261 µM)				
CC[C@H]1OC(=O)[C@H](C)[C@@H](OC(=O)Cc2cccnc2)[C@H](C)[C@@H](O[C@@H]2O[C@H](C)C[C@H](N(C)C)[C@H]2O)[C@](C)(OC(=O)OC/C=C/c2cnc3ccccc3c2)C[C@@H](C)C(=O)[C@H](C)[C@H]2NC(=O)O[C@@]21C [Compound 80]	0.06 µg/mL (≈ 0.0644 µM)	0.5 µg/mL (≈ 0.537 µM)	1 µg/mL (≈ 1.07 µM)				
CC[C@H]1OC(=O)[C@H](C)[C@@H](OC(=O)C(C)C)[C@H](C)[C@@H](O[C@@H]2O[C@H](C)C[C@H](N(C)C)[C@H]2O)[C@](C)(OC(=O)NC/C=C/c2ccc(-c3ccn(C)n3)cc2)C[C@@H](C)C(=O)[C@H](C)[C@H]2NC(=O)O[C@@]21C [Compound 49]							MIC (S. pneumoniae ATCC49619; [3]): 0.06 µg/mL (≈ 0.0659 µM); MIC (E. faecalis ATCC29212; [3]): 1 µg/mL (≈ 1.1 µM); MIC (S. aureus ATCC29213; [3]): 1 µg/mL (≈ 1.1 µM)
